# From US6737383B1, “Herbicidal oxadiazolidines” (priority 1999, dated 2004)
# Columns and labels:
# morningglory = assay: Test B pre/postemergence morningglory; format: in vivo, Ipomoea hederacea
# Outline: (§1)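 Test chemicals in a non-phytotoxic solvent mixture with surfactant were sprayed preemergence onto planted seeds and postemergence onto plants 2 to 18 cm tall (1- to 4-leaf stage). After twelve to sixteen days in a greenhouse, injury was visually rated against untreated controls from 0 (no effect) to 10 (complete control).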
# sugar beet = assay: Test B pre/postemergence sugar beet; format: in vivo, Beta vulgaris
# Outline: as §1
# wheat = assay: Test B pre/postemergence wheat; format: in vivo, Triticum aestivum
# Outline: as §1
# wild oat = assay: Test B pre/postemergence wild oat; format: in vivo, Avena fatua
# Outline: as §1
# corn = assay: Test B pre/postemergence corn; format: in vivo, Zea mays
# Outline: as §1
# cocklebur = assay: Test B pre/postemergence cocklebur; format: in vivo, Xanthium strumarium
# Outline: as §1
# pigweed = assay: Test B pre/postemergence pigweed; format: in vivo, Amaranthus retroflexus
# Outline: as §1
# blackgrass = assay: Test B pre/postemergence blackgrass; format: in vivo, Alopecurus myosuroides
# Outline: as §1
# rape = assay: Test B pre/postemergence rape; format: in vivo, Brassica napus
# Outline: as §1
# surinam grass = assay: Test B pre/postemergence surinam grass; format: in vivo, Brachiaria decumbens
# Outline: as §1
# crabgrass = assay: Test B pre/postemergence crabgrass; format: in vivo, Digitaria sanguinalis
# Outline: as §1
# smallflower flatsedge = assay: Test B flood test smallflower flatsedge; format: in vivo, Cyperus difformis
# Outline: (§2)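 Flood test on plants grown to the 2-leaf stage; treated plants kept in greenhouse twelve to sixteen days, then visually rated against controls on a 0 (no effect) to 10 (complete control) scale.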
# duck salad = assay: Test B flood test duck salad; format: in vivo, Heteranthera limosa
# Outline: as §2
# purple nutsedge = assay: Test B pre/postemergence purple nutsedge; format: in vivo, Cyperus rotundus
# Outline: as §1
# velvetleaf = assay: Test B pre/postemergence velvetleaf; format: in vivo, Abutilon theophrasti
# Outline: as §1
# [1] = Postemergence, Rate 250 g/ha, scale 0 to 10
# [2] = Postemergence, Rate 500 g/ha, scale of 0 to 10 where 0 is no effect and 10 is complete control
# [3] = Preemergence, Rate 62 g/ha, scale 0 to 10 (0 no effect, 10 complete control)
# [4] = Preemergence, Rate 125 g/ha, scale of 0 to 10 where 0 is no effect and 10 is complete control
# [5] = Preemergence, Rate 250 g/ha, scale 0 to 10, 0 is no effect, 10 is complete control
# [6] = Preemergence, Rate 500 g/ha, scale 0 to 10, 0 is no effect, 10 is complete control
# [7] = Rate 125 g/ha, Postemergence, scale 0 to 10, 0 is no effect, 10 is complete control
# [8] = Rate 62 g/ha, Postemergence, scale of 0 to 10 where 0 is no effect and 10 is complete control
# [9] = Preemergence, Rate 250 g/ha, scale of 0 to 10 where 0 is no effect and 10 is complete control
# [10] = Postemergence block (flood test species), Rate 250 g/ha, scale 0 to 10
# [11] = Postemergence section (flood test species), Rate 500 g/ha, scale of 0 to 10 where 0 is no effect and 10 is complete control
# [12] = Rate 125 g/ha, Postemergence section (flood test species), scale 0 to 10, 0 is no effect, 10 is complete control
smiles,measurement,setting,value
C=C[Si](C)(C)Cn1c(=O)on(C(=O)N(c2ccc(Cl)cc2)C(C)C)c1=O [Compound 425],Morningglory plant response rating,morningglory; [1],6
same,Morningglory plant response rating,morningglory; [2],10
same,"Plant response rating, Morningglory",morningglory; [3],0
same,"Plant response rating, Morningglory",morningglory; [4],0
same,Morningglory plant response rating,morningglory; [5],2
same,Morningglory plant response rating,morningglory; [6],4
same,Morningglory plant response rating,morningglory; [7],5
same,Sugarbeets plant response rating,sugar beet; [1],3
same,Sugarbeets plant response rating,sugar beet; [2],4
same,"Plant response rating, Sugarbeets",sugar beet; [3],0
same,"Plant response rating, Sugarbeets",sugar beet; [4],0
same,Sugarbeets plant response rating,sugar beet; [5],2
same,Sugarbeets plant response rating,sugar beet; [6],2
same,Sugarbeets plant response rating,sugar beet; [7],2
same,Wheat plant response rating,wheat; [1],3
same,Wheat plant response rating,wheat; [2],6
same,"Plant response rating, Wheat",wheat; [3],2
same,"Plant response rating, Wheat",wheat; [4],2
same,Wheat plant response rating,wheat; [5],3
same,Wheat plant response rating,wheat; [6],4
same,Wheat plant response rating,wheat; [7],0
same,Wild oats plant response rating,wild oat; [1],2
same,Wild oats plant response rating,wild oat; [2],3
same,"Plant response rating, Wild oats",wild oat; [3],2
same,"Plant response rating, Wild oats",wild oat; [4],4
same,Wild oats plant response rating,wild oat; [5],4
same,Wild oats plant response rating,wild oat; [6],10
same,Wild oats plant response rating,wild oat; [7],0
same,Corn plant response rating,corn; [1],0
same,Corn plant response rating,corn; [2],2
same,"Plant response rating, Corn",corn; [3],0
same,"Plant response rating, Corn",corn; [4],0
same,Corn plant response rating,corn; [5],0
same,Corn plant response rating,corn; [6],9
same,Corn plant response rating,corn; [8],0
same,Corn plant response rating,corn; [7],0
same,Cocklebur plant response rating,cocklebur; [1],0
same,Cocklebur plant response rating,cocklebur; [2],0
same,"Plant response rating, Cocklebur",cocklebur; [3],0
same,"Plant response rating, Cocklebur",cocklebur; [4],0
same,Cocklebur plant response rating,cocklebur; [5],0
same,Cocklebur plant response rating,cocklebur; [6],2
same,Cocklebur plant response rating,cocklebur; [8],0
same,Cocklebur plant response rating,cocklebur; [7],0
same,Redroot pigweed plant response rating,pigweed; [1],2
same,Redroot pigweed plant response rating,pigweed; [2],2
same,"Plant response rating, Redroot pigweed",pigweed; [3],0
same,"Plant response rating, Redroot pigweed",pigweed; [4],0
same,Redroot pigweed plant response rating,pigweed; [5],3
same,Redroot pigweed plant response rating,pigweed; [6],3
same,Redroot pigweed plant response rating,pigweed; [7],0
same,Blackgrass plant response rating,blackgrass; [1],8
same,Blackgrass plant response rating,blackgrass; [2],9
same,"Plant response rating, Blackgrass",blackgrass; [3],7
same,"Plant response rating, Blackgrass",blackgrass; [4],9
same,Blackgrass plant response rating,blackgrass; [9],9
same,Blackgrass plant response rating,blackgrass; [6],10
same,Blackgrass plant response rating,blackgrass; [8],2
same,Blackgrass plant response rating,blackgrass; [7],3
same,Rape plant response rating,rape; [1],2
same,Rape plant response rating,rape; [2],3
same,"Plant response rating, Rape",rape; [3],0
same,"Plant response rating, Rape",rape; [4],2
same,Rape plant response rating,rape; [5],2
same,Rape plant response rating,rape; [6],10
same,Rape plant response rating,rape; [7],0
same,B. signalgrass plant response rating,"surinam grass; Postemergence, Rate 250 g/ha, scale 0 to 10, 0 no effect, 10 complete control",7
same,B. signalgrass plant response rating,surinam grass; [2],8
same,"Plant response rating, B. signalgrass",surinam grass; [3],3
same,"Plant response rating, B. signalgrass",surinam grass; [4],8
same,B. signalgrass plant response rating,surinam grass; [9],8
same,B. signalgrass plant response rating,"surinam grass; Preemergence, Rate 500 g/ha, scale of 0 to 10 where 0 is no effect and 10 is complete control",9
same,B. signalgrass plant response rating,surinam grass; [8],0
same,B. signalgrass plant response rating,surinam grass; [7],2
same,Crabgrass plant response rating,crabgrass; [1],8
same,Crabgrass plant response rating,crabgrass; [2],9
same,"Plant response rating, Crabgrass",crabgrass; [3],9
same,"Plant response rating, Crabgrass",crabgrass; [4],10
same,Crabgrass plant response rating,crabgrass; [5],10
same,Crabgrass plant response rating,crabgrass; [6],10
same,Crabgrass plant response rating,crabgrass; [8],4
same,Crabgrass plant response rating,crabgrass; [7],7
same,S. Flatsedge plant response rating,smallflower flatsedge; [10],2
same,S. Flatsedge plant response rating,smallflower flatsedge; [11],6
same,S. Flatsedge plant response rating,smallflower flatsedge; [12],0
same,Ducksalad plant response rating,duck salad; [10],0
same,Ducksalad plant response rating,duck salad; [11],0
same,Ducksalad plant response rating,"duck salad; Rate 62 g/ha, Postemergence (flood test species), scale of 0 to 10 where 0 is no effect and 10 is complete control",0
same,Ducksalad plant response rating,duck salad; [12],0
same,Nutsedge plant response rating,purple nutsedge; [1],0
same,Nutsedge plant response rating,purple nutsedge; [2],0
same,"Plant response rating, Nutsedge",purple nutsedge; [3],0
same,"Plant response rating, Nutsedge",purple nutsedge; [4],0
same,Nutsedge plant response rating,purple nutsedge; [5],3
same,Nutsedge plant response rating,purple nutsedge; [6],5
same,Nutsedge plant response rating,purple nutsedge; [7],0
same,Velvetleaf plant response rating,velvetleaf; [1],0
same,Velvetleaf plant response rating,velvetleaf; [2],2
same,"Plant response rating, Velvetleaf",velvetleaf; [3],0
same,"Plant response rating, Velvetleaf",velvetleaf; [4],0
same,Velvetleaf plant response rating,velvetleaf; [5],2
same,Velvetleaf plant response rating,velvetleaf; [6],6
same,Velvetleaf plant response rating,velvetleaf; [7],0
